In US20120039805A1, “Therapeutics And Methods For Treating Neoplastic Diseases Comprising Determining The Level Of Caveolin-1 And/Or Caveolin-2 In A Stromal Cell Sample” (PANGEA BIOSCIENCES, INC., priority 2009, published 2012):

Columns and labels:
[1] = test system: PD-ECGF/TP transfected cells; conditions: Haraguchi (1993); cited from earlier work
Cav-1 = assay: Co-culture of MCF-7 cells with normal human fibroblasts: Cav-1 down-regulation in fibroblasts; type: cell-based; conditions: within 5 days of co-culture
From the text: Using this system, it was observed that within 5 days of co-culture MCF-7 cells down-regulate the expression of Cav-1 in adjacent stromal fibroblasts. This occurs via the degradation of Cav-1 in lysosomal structures, and can be inhibited by chloroquine, an anti-lysomal agent. Most importantly, MCF-7 cells induce oxidative stress in the adjacent fibroblasts via the over-production of reactive oxygen species (ROS). ROS, in turn, is known to stabilize and activate certain transcription factors, such as NFkB and HIF. NFkB- and HIF- are the master regulators of “inflammation” and “hypoxia/aerobic glycolysis” in the tumor microenvironment. Thus, in order to detect the activation of NFkB and HIF only in the fibroblast cell population, two different fibroblast cell lines engineered to express either a NFkB-luciferase or HIF-luciferase transcriptional reporter were used. […] As such, NFkB is activated first, while HIF is activated on day 4 and day 5 of coculture, coicindent with Cav-1 down-regulation. Thus, cancer cells induce the Warburg effect in adjacent stromal fibroblasts via the activation of NFkB and HIF-target genes, leading to inflammation and aerobic glycolysis. These findings provide a mechanistic basis for the “Reverse Warburg Effect”, and a new high-throughput drug-screening assay for the identification of novel compounds that block the “Reverse Warburg Effect”.

[2] = test system: MDA-MB-231 breast cancer cells co-injected with Cav-1-deficient stromal fibroblasts; assay: Two-component xenograft: nude mice co-injected with MDA-MB-231 cells and Cav-1-deficient stromal fibroblasts, treated with glycolysis inhibitors; type: in vivo; conditions: given individually, 200 mg/kg; mice co-injected with Cav-1-deficient stromal fibroblasts and MDA-MB-231 cells
Protocol: Mice co-injected with Cav-1-deficient stromal fibroblasts and MDA-MB-231 breast cancer cells were treated with glycolysis inhibitors. The efficacy of two well-established glycolysis inhibitors, namely 2-DG (2-deoxy-D-glucose) and DCA (dichloro-acetate), individually or in combination were tested.
To provide additional experimental validation for the idea that an absence of stromal Cav-1 promotes breast cancer tumor growth and angiogenesis, a 2-component cell-system using xenografts in immuno-deficient female nude mice was developed. Briefly, the flanks of nude mice were injected with a mixture of 1) MDA-MB-231 cells (a highly aggressive human breast cancer cell line; 1.0×10^−6 cells) and 2) stromal fibroblasts, derived from either WT or Cav-1 (−/−) null mice (0.3×10^−6 cells). After 3 weeks, nude mice were sacrificed and breast cancer-derived tumors were subjected to analysis for growth (tumor weight and volume measurements) and immuno-histochemistry with markers of angiogenesis, such as CD31 (a.k.a, PECAM1).
In this two-component system, nude mice are co-injected with i) human breast cancer cells (MDA-MB-231), and ii) stromal fibroblasts (WT versus Cav-1 (−/−) deficient).

neovascularization = conditions: Oikawa (1988); cited from earlier work
[3] = test system: invasive carcinomas of the breast; assay: Breast cancer tissue microarray cohort: progression-free survival by treatment and stromal Cav-1; type: in vivo, human
Protocol: Breast tissues for tissue microarray construction were obtained from the Surgical Pathology tiles at the University of Michigan with institutional Review Board (IRB) approval. The TMA contained tissues derived from 154 largely consecutive patients with invasive carcinomas of the breast, with follow-up information treated at the University of Michigan from 1987-1991. Clinical and pathological variables were determined following well-established criteria. All invasive carcinomas were graded according to the method described by Elston and Ellis 17; Lymphovascular Invasion (LVI) was classified as either present or absent. The tissue microarrays were constructed, as previously described, using a tissue arrayer (Beecher Instruments, Silver Spring, Md.). Three tissue cores (0.6 mm diameter) were sampled from each block to account for tumor and tissue heterogeneity and transferred to the recipient block. Only cases with two or three cores containing tumor stromal cells were considered for statistical analysis in order to address possible heterogeneity of the staining in various tumor portions. Clinical and treatment information was extracted by chart review.
Our study population consists of 154 women diagnosed with breast cancer, with a median age of 59.5 years (range 28-96 years). 85% of the women were white. The median follow-up time for all survivors was 8.4 years (>30 days-18.5 years). […] The median time to recurrence or death from any cause was 7.1 years.
Statistical Analysis. For each patient, the date of breast cancer diagnosis, date of last follow-up, vital status at last follow-up, causes of death (breast cancer or other), and breast cancer recurrence, were recorded. Stromal caveolin was scored for each tissue sample based on 3 cores taken from the sample and given a numeric score of 0, 1 or 2, depending on the degree of stromal Cav-1 staining. The median of the three numeric scores was taken to be the stromal Cav-1 score for the sample. In the event that only two of the cores were scorable, and the median score was fractional, it was rounded upward to reflect the presence of stromal Cav-1. […]
Our primary outcome of interest in this study is progression-free survival (PFS) from time of diagnosis to the presence of metastasis, death, or last visit. PFS is evaluated using Kaplan-Meier estimation, and comparison of stratified survival curves was done using log-rank tests. […] Associations between the presence of stromal Cav-1 and other factors, including age, race, tumor grade, tumor size, lymph node status, histological subtype, estrogen receptor (ER), progesterone receptor (PR) and HER2, and presence of recurrent disease, were evaluated using Fisher's exact and Kruskal-Wallis tests, depending on the discrete or continuous nature of the other factors.

[4] = Tamoxifen-treated patients, stromal Cav-1 absent

C[C@H]1O[C@@H](n2cc(F)c(=O)[nH]c2=O)[C@H](O)[C@@H]1O [5′DFUR, 5′-deoxy-5-fluorouridine]
antitumor effect in PD-ECGF/TP transfected cells compared with untransfected wild-type cells [1]: dramatic enhancement of antitumor effect

CCN(CC)CCCC(C)Nc1ccnc2cc(Cl)ccc12 (centres unmarked) [chloroquine]
degradation of Cav-1 in lysosomal structures of fibroblasts co-cultured with MCF-7 cells (Cav-1): inhibited

O=CC[C@@H](O)[C@H](O)[C@H](O)CO [2-DG, 2-deoxy-D-glucose]
effect on tumor growth [2]: no effect on tumor growth

CC(=O)O[C@]1(C(C)=O)CC[C@H]2[C@@H]3C[C@H](C)C4=CC(=O)CC[C@]4(C)[C@H]3CC[C@@]21C [MPA, medroxyprogesterone acetate]
neovascularization in the rabbit corneal assay (neovascularization): potently inhibited neovascularization

CC/C(=C(\c1ccccc1)c1ccc(OCCN(C)C)cc1)c1ccccc1 [Tamoxifen]
Hazard ratio, Cox regression of Progression-Free Survival (PFS) ([3]; Tamoxifen use Yes vs No (ref), adjusted for T stage, N stage, stromal Cav-1, 101 observations): 0.621 | Median Progression-Free Survival (PFS) [3, 4]: 3.55 years | Percent of Patients Alive with No Recurrence, 5-Year PFS [3, 4]: 28.6% | Percent of Patients Alive with No Recurrence, 5-Year PFS ([3]; Tamoxifen-treated patients, stromal Cav-1 present): 90.2%
